In patent EP1247803A2, “Indolinone compounds suitable for modulation of protein kinases” (Sugen, Inc., priority 1996, dated 1998):

Tests used:
[1] = target: PDGF-R (Homo sapiens, UniProt P09619); assay: PDGF-R ELISA; format: cell-based
Text: A PDGF-R ELISA is described in International Patent Publication No. WO 96/40116, published December 19, 1996 by Tang et al.

[2] = target: T1, EGFR (Homo sapiens, UniProt P00533); assay: EGFR ELISA assay (in vitro kinase activity, EGFR captured from A431 cell lysate); format: biochemical; set-up: concentration or dose not given beside the values
T1 construct: Add 7 ug A431 cell lysate per well (EGFR source); endogenous in cells; host or cells: A431
Outline: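 Receptor autophosphorylation was read by ELISA: anti-phosphotyrosine serum and an HRP-linked secondary with ABTS substrate, absorbance at 410 nm (reference 630 nm). The reaction ran 5 min with 3 µM ATP and 5 mM MnCl2 and was quenched by 20 mM EDTA. Compounds were first incubated 30 min with antibody-captured EGFR from A431 cell lysate.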

[3] = system: MET; assay: MET biochemical kinase assay; set-up: species or system human; concentration or dose not given beside the values
Outline: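 Plates coated with anti-rabbit Fc bind a rabbit anti-MET antibody that captures receptor from cell lysates; unbound protein is washed off before compound and ATP-containing kinase buffer go in.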

T1 sequence (P00533 25-1210): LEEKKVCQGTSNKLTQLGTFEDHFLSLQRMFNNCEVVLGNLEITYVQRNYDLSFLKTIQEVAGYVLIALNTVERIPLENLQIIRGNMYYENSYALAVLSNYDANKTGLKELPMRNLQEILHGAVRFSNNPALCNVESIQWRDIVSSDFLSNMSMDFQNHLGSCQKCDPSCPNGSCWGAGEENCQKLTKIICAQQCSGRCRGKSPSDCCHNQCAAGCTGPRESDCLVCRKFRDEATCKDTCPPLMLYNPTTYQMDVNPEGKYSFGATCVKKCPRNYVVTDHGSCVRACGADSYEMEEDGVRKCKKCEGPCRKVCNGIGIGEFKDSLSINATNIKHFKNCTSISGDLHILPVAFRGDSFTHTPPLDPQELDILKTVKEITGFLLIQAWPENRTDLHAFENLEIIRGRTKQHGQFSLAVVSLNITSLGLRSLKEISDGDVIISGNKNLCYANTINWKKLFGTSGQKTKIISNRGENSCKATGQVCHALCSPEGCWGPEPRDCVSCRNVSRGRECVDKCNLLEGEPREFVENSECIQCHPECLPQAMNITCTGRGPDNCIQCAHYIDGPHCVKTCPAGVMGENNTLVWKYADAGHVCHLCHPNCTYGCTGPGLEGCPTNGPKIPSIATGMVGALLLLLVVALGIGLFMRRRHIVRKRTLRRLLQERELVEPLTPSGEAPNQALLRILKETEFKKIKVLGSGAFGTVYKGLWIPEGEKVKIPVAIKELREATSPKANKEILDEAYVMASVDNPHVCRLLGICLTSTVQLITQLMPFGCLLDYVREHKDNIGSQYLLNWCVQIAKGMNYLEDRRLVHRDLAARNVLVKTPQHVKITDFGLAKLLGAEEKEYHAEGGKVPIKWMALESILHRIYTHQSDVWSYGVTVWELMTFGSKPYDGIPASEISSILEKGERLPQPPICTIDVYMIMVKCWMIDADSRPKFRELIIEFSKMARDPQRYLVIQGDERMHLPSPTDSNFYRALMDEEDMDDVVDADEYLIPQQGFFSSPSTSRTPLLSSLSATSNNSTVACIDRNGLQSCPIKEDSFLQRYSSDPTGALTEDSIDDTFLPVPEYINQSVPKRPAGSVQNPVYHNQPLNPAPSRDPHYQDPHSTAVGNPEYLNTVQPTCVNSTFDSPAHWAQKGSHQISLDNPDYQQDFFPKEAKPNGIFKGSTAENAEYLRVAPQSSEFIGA
PDGF-R, sequence (P09619 33-1106, species assumed): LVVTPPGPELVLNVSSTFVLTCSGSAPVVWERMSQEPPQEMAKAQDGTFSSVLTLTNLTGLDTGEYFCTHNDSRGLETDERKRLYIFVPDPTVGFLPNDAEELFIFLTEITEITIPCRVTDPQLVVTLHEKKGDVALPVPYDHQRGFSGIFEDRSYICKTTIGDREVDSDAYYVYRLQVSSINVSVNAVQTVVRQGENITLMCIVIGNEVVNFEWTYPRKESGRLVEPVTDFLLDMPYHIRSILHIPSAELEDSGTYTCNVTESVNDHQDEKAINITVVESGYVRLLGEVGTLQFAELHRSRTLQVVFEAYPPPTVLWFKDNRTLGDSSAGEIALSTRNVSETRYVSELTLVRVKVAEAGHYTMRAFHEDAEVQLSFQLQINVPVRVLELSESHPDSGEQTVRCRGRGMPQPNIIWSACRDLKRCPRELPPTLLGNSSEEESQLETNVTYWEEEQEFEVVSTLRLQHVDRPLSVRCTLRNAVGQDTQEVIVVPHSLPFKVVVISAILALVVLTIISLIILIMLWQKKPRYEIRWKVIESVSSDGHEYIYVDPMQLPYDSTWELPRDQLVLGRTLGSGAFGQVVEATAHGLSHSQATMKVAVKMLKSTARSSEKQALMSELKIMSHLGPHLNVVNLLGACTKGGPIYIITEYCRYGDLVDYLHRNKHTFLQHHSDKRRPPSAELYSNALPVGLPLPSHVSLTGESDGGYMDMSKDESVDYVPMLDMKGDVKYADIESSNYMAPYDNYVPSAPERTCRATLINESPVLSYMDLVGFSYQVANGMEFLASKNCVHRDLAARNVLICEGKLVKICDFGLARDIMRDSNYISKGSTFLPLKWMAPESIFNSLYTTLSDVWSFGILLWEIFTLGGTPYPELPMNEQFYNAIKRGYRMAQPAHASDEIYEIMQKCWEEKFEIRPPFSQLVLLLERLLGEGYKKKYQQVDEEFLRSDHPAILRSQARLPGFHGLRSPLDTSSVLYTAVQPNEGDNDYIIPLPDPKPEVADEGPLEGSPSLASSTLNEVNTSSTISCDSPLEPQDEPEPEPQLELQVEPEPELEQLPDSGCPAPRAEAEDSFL

SMILES | PDGF Kinase %Inhibition [1] [%] | Biochem EGFR %Inhibition [2] [%] | Met Kinase % Inhibition [3] [%]
O=C1Nc2ccc(S(=O)(=O)Nc3ccc(C(F)(F)F)cc3)cc2C1=Cc1ccc(Br)s1 [10734/E11] | 16.1 | -8.0 | 67.1
O=C1Nc2ccc(S(=O)(=O)Nc3ccc(C(F)(F)F)cc3)cc2C1=Cc1cc(Br)cc(Br)c1O [10734/E07] | 8.2 | 82.4 | 100.8
CC(C)(C)c1ccc(C=C2C(=O)Nc3ccc(CCCl)cc32)cc1 [10734/G10] | 9.9 | 3.8 | 19.3
O=C1Nc2ccc(CCCl)cc2C1=Cc1ccc(O)c(Br)c1 [10734/G09] | -7.7 | 21.4 | 84.7
O=C1Nc2ccc(S(=O)(=O)Nc3ccc(C(F)(F)F)cc3)cc2C1=Cc1cccc(F)c1O [10734/E08] | 13.0 | 24.2 | 89.1
O=C1Nc2ccc(S(=O)(=O)N3CCOCC3)cc2C1=Cc1cc(Cl)ccc1O [10734/F04] | 25.0 | 3.9 | 76.5
O=C1Nc2ccc(CCCl)cc2C1=Cc1cc(Cl)ccc1O [10734/G04] | 16.1 | 62.9 | 72.1
O=C1Nc2ccc(S(=O)(=O)N3CCOCC3)cc2C1=Cc1cc(Br)cc(Br)c1O [10734/F07] | -5.1 | 33.7 | 95.7
O=C1Nc2ccc(S(=O)(=O)N3CCOCC3)cc2C1=Cc1cc(Cl)cc(Cl)c1O [10734/F03] | -24.1 | 24.8 | 86.8
O=C1Nc2ccc(CCCl)cc2C1=Cc1cccc(F)c1O [10734/G08] | 0.2 | 33.7 | 82.2
O=C1Nc2ccc(S(=O)(=O)Nc3ccc(C(F)(F)F)cc3)cc2C1=Cc1cc(Cl)ccc1O [10734/E04] | 26.7 | -7.8 | 88.9
O=C1Nc2ccc(CCCl)cc2C1=Cc1cc(Br)cc(Br)c1O [10734/G07] | -25.0 | 51.1 | 96.6
O=C1Nc2ccc(S(=O)(=O)N3CCOCC3)cc2C1=Cc1ccc([N+](=O)[O-])cc1 [10734/F06] | -21.4 | -17.1 | 64.2
O=C1Nc2ccc(S(=O)(=O)Nc3ccc(C(F)(F)F)cc3)cc2C1=Cc1ccc(O)c(Br)c1 [10734/E09] | 1.1 | 73.0 | 96.2
CCN(CC)c1ccc(C=C2C(=O)Nc3ccc(S(=O)(=O)Nc4ccc(C(F)(F)F)cc4)cc32)c(O)c1 [10734/E05] | 17.9 | 7.9 | 63.6
CCN(CC)c1ccc(C=C2C(=O)Nc3ccc(S(=O)(=O)N4CCOCC4)cc32)c(O)c1 [10734/F05] | -1.1 | -15.6 | 73.8
CC(C)(C)c1ccc(C=C2C(=O)Nc3ccc(S(=O)(=O)N4CCOCC4)cc32)cc1 [10734/F10] | 25.8 | -8.3 | 44.8
CCN(CC)c1ccc(C=C2C(=O)Nc3ccc(CCCl)cc32)c(O)c1 [10734/G05] | 2.9 | -0.3 | 57.7
O=C1Nc2ccc(CCCl)cc2C1=Cc1ccc(Br)s1 [10734/G11] | -25.4 | 4.1 | 20.2
O=C1Nc2ccc(CCCl)cc2C1=Cc1ccc([N+](=O)[O-])cc1 [10734/G06] | -18.8 | 12.5 | 43.1
O=C1Nc2ccc(CCCl)cc2C1=Cc1cc(Cl)cc(Cl)c1O [10734/G03] | -3.8 | 82.8 | 93.4
CCOc1cccc(C=C2C(=O)Nc3ccc(CCCl)cc32)c1O [10734/G02] | 14.8 | 3.4 | 63.6
